Assay results reported in publication PMC9119314 (Frontiers in Pharmacology, 2022).
Where two headings read alike, the source gives them in different places.

Legend:
P. falciparum 3D7 = test: In vitro antiplasmodial activity, P. falciparum 3D7 (SYBR Green I); type: cell-based; details: Plasmodium falciparum; chloroquine-sensitive strain 3D7, 48 h; read-out: Activity against P. falciparum 3D7, IC50
Procedure: (§1) P. falciparum (3D7 clone) and P. knowlesi (A1-H.1 clone) were maintained in culture in RPMI 1640 supplemented with 25 mM HEPES, 25 mM NaHCO3, 10 mM D-glucose, 2 mM L-glutamine, 50 mg/L hypoxanthine, 25 mg/L gentamicin sulfate, 5 g/L Albumax II, and 10% (v/v) equine serum (Thermo Fisher Scientific, 26-050-088). The P. falciparum (3D7) and P. knowlesi (A1-H.1) parasites were grown in human A^+ red blood cells (National Health Blood and Transplant, United Kingdom). The parasites were incubated in sealed flasks at 37°C under a culture gas mixture of 96% N2, 3% CO2, and 1% O2. ([van Schalkwyk et al., 2019]). The compounds were initially dissolved in DMSO prior to diluting in RPMI. All experiments were initiated using unsynchronized parasites with both the parasitemia and hematocrit set to 1%. Drug susceptibility assays were set up in 96-well, flat-bottom microplates in a final volume of 200 μL, as described previously ([van Schalkwyk et al., 2017]). The controls were included for the background fluorescence (0% viability; parasites exposed to a supralethal 10 μM chloroquine concentration) and 100% growth (parasites in drug-free wells). The plates were incubated for one complete life cycle (27 h for P. knowlesi or 48 h for P. falciparum in vitro) at 37°C in a modular incubation chamber (Billups-Rothenburg Inc.) under the culture gas. Upon termination of the assay, the plates were stored at −20°C overnight. The SYBR Green I fluorescent method was used to measure parasite survival ([Bennett et al., 2004]; [Smilkstein et al., 2004]). After the microplates were thawed, 100 μL from each well was transferred into a duplicate plate. To this was added 100 μL of SYBR green solution [SYBR Green I (Thermo Fisher Scientific, S7563), diluted 1:5000 in a lysis buffer made of 20 mM Tris, 5 mM EDTA, 0.008% (w/v) saponin, 0.08% (v/v) Triton X-100, pH 7.5]. The plates were stored in the dark for 1 h before fluorescence was read at a 490 nm excitation wavelength and a 520 nm emission wavelength on a Spectramax M3 microplate reader (Molecular Devices) ([van Schalkwyk et al., 2017]). The background fluorescence (wells with parasites at 0% viability) was subtracted from all drug assay wells, and the parasite proliferation was determined as a percentage of the fluorescence in the drug-free control wells.

P. falciparum K1 = test: In vitro antiplasmodial activity, P. falciparum K1 (lactate dehydrogenase assay); type: cell-based, Plasmodium falciparum; details: for IC50: Plasmodium falciparum, chloroquine-resistant strain K1, 48 h, mean ± SE, read-out: Activity against P. falciparum K1, IC50
Procedure: P. falciparum (K1 clone) was maintained in human erythrocytes prepared from the donated blood samples (blood groups unknown, Ethical Tissue, University of Bradford), suspended in the RPMI 1640 medium as previously described ([Wright et al., 2001]), except that serum was replaced with Albumax II, [5% (^w/v)]. […] Twofold serial dilutions were made in 96-well microtiter plates in duplicate, and infected erythrocytes were added to give a final volume of 100 µL with 2.5% hematocrit and 1% parasitemia. Chloroquine diphosphate was used as a positive control, and uninfected and infected erythrocytes without compounds were included in each test. The plates were placed into a modular incubator; gassed with 93% nitrogen, 3% oxygen, and 4% carbon dioxide; and incubated at 37°C for 48 h. The parasite growth was assessed by measuring lactate dehydrogenase activity as described by [Makler et al. (1993)]. The reagent used contained the following in each mL: acetylpyridine adenine dinucleotide (APAD), 0.74 mg; lithium lactate, 19.2 mg; diaphorase, 0.1 mg; Triton X-100, 2 μL; nitroblue tetrazolium, 1 mg; and phenazine ethosulphate, 0.5 mg. Fifty microliter of this reagent was added to each well and mixed; plates were incubated for 15 min at 37°C. The optical densities were read at 550 nm using an Azure 96-well microplate reader (Azure Biosystems Inc.), and % inhibition of growth was calculated by comparison with the control values. IC50 values were determined using linear regression analysis (Microsoft Excel). A minimum of three separate determinations was carried out for each compound.

A2780/ADR cells = test: Chemosensitivity MTT assay, doxorubicin-resistant A2780/ADR; type: cell-based; details: Homo sapiens, 96 h, ± SE, read-out: Activity against A2780/ADR cells, IC50
Procedure: A modified MTT assay was used ([Shnyder et al., 2008]). Cells (2 × 10^4/ml) were inoculated into each well of a 96-well plate and incubated for 24 h at 37°C in a humidified atmosphere containing 5% CO2. Compounds were then added at a range of concentrations to each well, and the plates were then incubated for a further 96 h. After 96 h, the culture medium was removed and 200 μL of 0.5 mg ml^–1 MTT solution (Sigma) in the complete medium was added to each well. Following a further 4 h incubation, the solution was removed from each well and 150 μL of DMSO was added to solubilize the formazan crystals resulting from MTT conversion. The absorbance values for the resulting solutions were read at 540 nm on an Azure 96-well microplate reader (Azure Biosynstems Inc.), and the cell survival was calculated as the absorbance of treated cells divided by the control.

P. knowlesi A1-H.1 = test: In vitro antiplasmodial activity, P. knowlesi A1-H.1 (SYBR Green I); type: cell-based, Plasmodium knowlesi; details: 27 h
Procedure: as §1

[1] = tested on: T. brucei bloodstream forms (strain 427, derivative 221); test: In vitro activity against T. brucei bloodstream forms (resazurin); type: cell-based, Trypanosoma brucei; details: Trypanosoma brucei, bloodstream forms, hydrochloride salts except 6 (citrate), ± SE; for IC50: 64 h, 48 h + 16 h resazurin
Procedure: (§2) Bloodstream form T. brucei (strain 427, derivative 221) was maintained in modified Iscove’s medium, as described previously ([Taylor et al., 2013]). […] The parasites were diluted to 1 × 10^4 ml^−1, the compound was added at a range of concentrations, and the plates were incubated at 37°C in 5% CO2 for 48 h. Resazurin was then added to each well, and the plates were incubated for a further 16 h. Fluorescence intensities were determined using a BMG FLUOstar Omega plate reader (excitation 545 nm, emission 590 nm), and data were analyzed using Graph Pad Prism 9.0 software. […]

[2] = as above; type: cell-based, Trypanosoma brucei; details: human; SI compared with Hep G cells (Table 1); read-out: Selectivity index (SI), T. brucei compared with cytotoxicity to Hep G cells (converted)
Procedure: as §2

[3] = Plasmodium knowlesi, read-out: Activity against P. knowlesi A1-H.1, IC50, 27 h, ± SD

| SMILES | IC50 (P. falciparum 3D7) [nM] | IC50 (P. falciparum K1) [nM] | Selectivity index (SI), P. falciparum K1 with respect to Hep G cells (P. falciparum K1) | IC50 (A2780/ADR cells) [nM] | IC50 (P. knowlesi A1-H.1; [3]) [nM] | IC50 (P. knowlesi A1-H.1; read-out: Activity against P. knowlesi A1-H.1, IC50, ± SD) [nM] | IC50 [1] [nM] | IC90 [1] [nM] | selectivity ratio at 48 h [2] |
| --- | --- | --- | --- | --- | --- | --- | --- | --- | --- |
| C[n+]1c2ccccc2cc2[n-]c3ccc(I)cc3c21 [Compound 5, 7-iodocryptolepine] | 92 ± 20 | 160 ± 30 | 41.9 | 180 ± 10 | 110 | 104 ± 40 | 81.3 ± 2.5 | 113 ± 11 | 82.4 |
| C[n+]1c2ccccc2cc2[n-]c3c(Br)cc(Br)cc3c21 [Compound 4, 7,9-Dibromocryptolepine] | 760 ± 60 | 440 ± 90 | 15.4 | 310 ± 60 | 1120 ± 450 | – | 28.3 ± 0.5 | 40.3 ± 6.1 | 240 |
| C[n+]1c2ccccc2cc2[n-]c3c(I)cc(I)cc3c21 [Compound 6, 7,9-diiodocryptolepine] | 660 ± 60 | 250 ± 40 | 113 | 180 ± 20 | 1040 ± 220 | – | 59 ± 13 | 114 ± 11 | 478 |
